Experimental data from patent publication US8309745B2, “Epigallocatechin dimers or trimers having lipase inhibitory activity and/or antioxidant activity” (Suntory Holdings Limited, priority 2004, dated 2012).

What was measured:
swine pancreatic lipase = molecular target: T1, swine pancreatic lipase (Sus scrofa, UniProt P00591); assay: Measurement of lipase inhibitory activity (4-UMO fluorescence assay); type: biochemical; conditions: for IC50: swine pancreatic lipase, 4-UMO substrate, pH 8.0, 30-minute reaction, read-out: Lipase Inhibitory Activities of Various Polyphenols IC50; for lipase inhibitory activity compared with EGCG: in words
T1 construct: purchased Sigma
T1 sequence (P00591 1-450): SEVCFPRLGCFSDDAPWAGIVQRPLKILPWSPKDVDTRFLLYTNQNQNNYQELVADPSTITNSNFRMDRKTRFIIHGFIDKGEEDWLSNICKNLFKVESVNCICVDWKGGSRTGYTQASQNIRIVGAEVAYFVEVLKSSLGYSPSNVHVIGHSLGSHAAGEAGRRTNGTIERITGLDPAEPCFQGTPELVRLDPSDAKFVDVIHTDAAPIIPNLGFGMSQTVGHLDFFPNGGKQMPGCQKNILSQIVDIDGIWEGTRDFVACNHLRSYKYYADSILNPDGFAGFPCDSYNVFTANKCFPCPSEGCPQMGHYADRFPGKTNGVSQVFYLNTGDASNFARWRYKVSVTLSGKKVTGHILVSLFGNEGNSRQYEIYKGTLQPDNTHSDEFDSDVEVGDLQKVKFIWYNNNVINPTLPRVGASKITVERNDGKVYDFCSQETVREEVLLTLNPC
Excerpt: Lipase inhibitory activity can be measured by any one of the lipase activity assays that are described in the prior applications mentioned in the Background Art. As for inhibitory activity against pancreatic lipase, an oleic ester of fluorescent 4-methylumbelliferone may be used as a substrate to measure the fluorescence from 4-methylumbelliferone that is formed by reaction with the lipase. The amount of a sample that provides 50% inhibition of lipase activity (IC50) may be substituted to express lipase inhibitory activity in accordance with the usual method.
For lipase activity measurement, an oleic ester of fluorescent 4-methylumbelliferone (4-UMO) was used as a substrate and the fluorescence from 4-methylumbelliferone formed by enzyme reaction was measured.
The buffer used in the measurement was 13 mM tris-HCl (pH 8.0) containing 150 mM NaCl and 1.36 mM CaCl2. The substrate 4-UMO (product of Sigma-Aldrich Co.) was prepared as 0.1 M solution in DMSO and then diluted 1,000-fold with the buffer. The lipase subjected to enzyme measurement was swine pancreatic lipase (product of Sigma) that had been diluted to a concentration of 400 U/ml with the buffer.
To start the enzyme reaction, 50 μl of buffered 4-UMO solution and 25 μl of distilled water (or an aqueous solution of sample) were loaded and mixed on a 96-well microplate and 25 μl of the buffered lipase solution was then added. After 30-minute reaction, 100 μl of 0.1 M citrate buffered solution (pH 4.2) was added to quench the reaction and the fluorescence from 4-methylumbelliferone (excitation wavelength: 355 nm; fluorescence wavelength: 460 nm), which was generated by the reaction, was measured with a fluorescence plate reader (Fluoroskan Asent CF: product of Labsystems).
The inhibitory activity of the test sample was determined as its amount that would provide 50% inhibition of lipase activity (IC50 in μl) compared to the activity of the control (distilled water).
The lipase inhibitory activities of six compounds (dimers of OHBFs and their trimer), as well as epigallocatechin gallate (EGCG) were measured in accordance with Example 1 and the results are shown in Table 1.

[1] = Superoxide anion radical scavenging activity (hypoxanthine-xanthine oxidase reaction, ESR with DMPO); conditions: O2- generated by hypoxanthine-xanthine oxidase, DMPO trapping agent
Procedure: The superoxide anion radical scavenging activity was measured by the method to be described in Example 5. Briefly, O2^− was generated by means of hypoxanthine-xanthine oxidase reaction and 5,5-dimethyl-1-pyrrolin-N-oxide was used as a trapping agent to perform measurement by ESR. Measurements were conducted in the presence or absence of compounds of the present invention and the results were expressed as IC50 or the amount of a sample that provided 50% suppression of O2^− generation.
Evaluation was made of the activity for scavenging superoxide anion radicals generated by hipoxanthine-xanthine oxidase reaction, a kind of active oxygen.
After preparing (1) 2 mM hypoxanthine solution (dissolved in 0.1 M phosphate buffered solution at pH 7.4) and (2) 5.5 mM diethylenetriamine-pentaacetic acid (dissolved in 0.1 M phosphate buffered solution at pH 7.4), 5.0 ml of the solution (1), 3.5 ml of the solution (2), and 1.5 ml of 5,5-dimethyl-1-pyrrolin-N-oxide (DMPO, product of LABOTECH) were mixed to make reagent 1. A 50-μl portion of reagent 1 was put in a 1.5-ml microtube and incubated at 37° C. for 4 minutes. To the incubated reagent 1, a methanol solution of the sample was added in an amount of 20 μl and then 50 μl of xanthine oxidase (0.4 units/ml) was added, followed by stirring for 10 seconds. The reaction mixture was injected into a hematocrit tube, which was set in an ESR apparatus and sweeping in a magnetic field was started 60 seconds after addition of xanthine oxidase. The conditions of ESR measurement were as follows: Power, 4 mW; C. Field, 335.5 mT, SwWid (±), 5 mT; SwTime, 1 min; ModWid, 0.1 mT; Amp, 160; TimeC, 0.1 sec; Temperature, 20° C.
Among the ESR signals from DMPO-OOH, the signal of the lowest field strength was compared in height to the internal standard Mn^2+ signal and the ratio (S/M) was assumed to represent the amount of O2^− and the O2^− scavenging activity was calculated by the following formula: O2^− scavenging activity(%)=100−{100×(S/M in the presence of the sample)/(S/M in the absence of the sample)} Results: […]

SMILES | IC50 (swine pancreatic lipase) | IC50 [1] | lipase inhibitory activity compared with EGCG (swine pancreatic lipase)
O=C(O[C@@H]1Cc2c(O)cc(O)c(Cc3c(O)cc(O)c4c3O[C@H](c3cc(O)c(O)c(O)c3)[C@H](OC(=O)c3cc(O)c(O)c(O)c3)C4)c2O[C@@H]1c1cc(O)c(O)c(O)c1)c1cc(O)c(O)c(O)c1 [Oolong homobisflavan A (1), oolong homobisflavan A] | 0.049 µM |  | 
O=C(O[C@@H]1Cc2c(O)cc(O)cc2O[C@@H]1c1cc(O)c(O)c(O)c1)c1cc(O)c(O)c(O)c1 [Epigallocathechin 3-O-gallate (7), (−)-epigallocatechin-3-O-gallate, reference compound] |  | 14 µM | 
Oc1cc([C@H]2Oc3cc(O)c(Cc4c(O)cc(O)c5c4O[C@H](c4cc(O)c(O)c(O)c4)[C@H](O)C5)c(O)c3C[C@H]2O)cc(O)c1O [Didesgalloyl oolong homobisflavan B (6), didesgalloyl oolong homobisflavan B] | 2.08 µM |  | 
O=C(O[C@@H]1Cc2c(O)cc(O)c(Cc3c(O)cc(O)c4c3O[C@H](c3cc(O)c(O)c(O)c3)[C@H](O)C4)c2O[C@@H]1c1cc(O)c(O)c(O)c1)c1cc(O)c(O)c(O)c1 [monodesgalloyl oolong homobisflavan A] | 0.271 µM |  | 
O=C(O[C@@H]1Cc2c(O)cc(O)c(Cc3c(O)c(Cc4c(O)cc(O)c5c4O[C@H](c4cc(O)c(O)c(O)c4)[C@H](OC(=O)c4cc(O)c(O)c(O)c4)C5)c4c(c3O)C[C@@H](OC(=O)c3cc(O)c(O)c(O)c3)[C@@H](c3cc(O)c(O)c(O)c3)O4)c2O[C@@H]1c1cc(O)c(O)c(O)c1)c1cc(O)c(O)c(O)c1 [Trimer (4)] | 0.129 µM | 10.1 µM | potent lipase inhibitory activity compared with EGCG
O=C(O[C@@H]1Cc2c(cc(O)c(Cc3c(O)cc(O)c4c3O[C@H](c3cc(O)c(O)c(O)c3)[C@H](OC(=O)c3cc(O)c(O)c(O)c3)C4)c2O)O[C@@H]1c1cc(O)c(O)c(O)c1)c1cc(O)c(O)c(O)c1 [Oolong homobisflavan B (2), oolong homobisflavan B] | 0.108 µM |  | 
O=C(O[C@@H]1Cc2c(cc(O)c(Cc3c(O)cc4c(c3O)C[C@@H](OC(=O)c3cc(O)c(O)c(O)c3)[C@@H](c3cc(O)c(O)c(O)c3)O4)c2O)O[C@@H]1c1cc(O)c(O)c(O)c1)c1cc(O)c(O)c(O)c1 [Oolong homobisflavan C (3), oolong homobisflavan C] | 0.097 µM | 6.2 µM | potent lipase inhibitory activity compared with EGCG
